Laboratory results: US11344510B2, “Arylcyclohexylamine derivatives and their use in the treatment of psychiatric disorders” (Gilgamesh Pharmaceuticals, Inc., priority 2019, dated 2022)
Entries after “also recorded” stand apart in the source; their conditions may differ.

Assays:
[1] = molecular target: MK-801 binding site of the N-methyl-D-aspartate receptor (NMDAR); assay: NMDAR radioligand binding with [3H]MK-801, Method B; design: species or system Sprague Dawley rat; details: MK-801 site, Method B, male Sprague Dawley rat cortex, 5.0 nM [3H]MK-801; read-out: NMDAR Ki ± SEM
Experimental: Radioligand Binding—Method B. Affinity of the test compounds for NMDAR was determined in radioligand binding experiments with [^3H]MK-801 by WuXi AppTec (Hong Kong) Limited, under the conditions described in Table 13.

[2] = molecular target: T1, vesicular monoamine transporter 2 (VMAT2) (Homo sapiens, UniProt Q05940); assay: Fluorescent substrate uptake inhibition, VMAT2; assay type: cell-based; details: 10 μM, transfected cells
T1 construct: expressed in transfected cells

SERT = molecular target: T2, SERT (Homo sapiens, UniProt P31645); assay: SERT radioligand binding with [3H]imipramine
T2 construct: expressed in transfected cells; host or cells: HEK293
Experimental: Radioligand Binding. Affinity of the test compounds for SERT, NET, and DAT was determined in radioligand binding experiments with [^3H]imipramine, [^3]nisoxetine, and [^3H]WIN35,428, respectively, by WuXi AppTec (Hong Kong) Limited, under the conditions described in Table 15.

[3] = MLM stability (Low Activity); assay type: in vitro ADME, CD-1 mice; details: male, CD-1, mouse, liver microsomes, pH 7.4, Condition 1 (Low Activity), 0.50 mg protein/mL
In short: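 Pooled male CD-1 mouse liver microsomes (0.50 mg/mL) with 1 μM compound and 1 mM NADPH in 100 mM PBS pH 7.4 with 1 mM MgCl2, 37 °C, six time points over 60 min. Parent remaining by LC-MS/MS; kel, t1/2 and Clint from linear regression of ln(AUC) versus time.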

[4] = molecular target: T3, serotonin transporter (SERT) (Homo sapiens, UniProt P31645); assay: Fluorescent substrate uptake inhibition, SERT; assay type: cell-based; details: for inhibition at 10 µM: HEK293 cells expressing SERT
T3 construct: expressed in transfected cells; host or cells: HEK293

[5] = molecular target: T4, dopamine transporter (DAT) (Homo sapiens, UniProt Q01959); assay: Fluorescent substrate uptake inhibition, DAT; assay type: cell-based; details: 10 μM, CHO cells expressing DAT
T4 construct: expressed in transfected cells; host or cells: CHO (uptake)

[6] = RLM stability (Low Activity); assay type: in vitro ADME, Sprague Dawley rats; details: male, Sprague Dawley, rat, liver microsomes, pH 7.4, Condition 1 (Low Activity), 0.50 mg protein/mL
In short: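 Pooled male Sprague Dawley rat liver microsomes (0.50 mg/mL) in PBS pH 7.4 with 1 mM MgCl2 and 1 mM NADPH; compound 1 μM, 1.0% solvent, 37° C. Six time points over 60 min, parent remaining by LC-MS/MS; kel, t1/2 and Clint from linear regression of ln(AUC) versus time.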

[7] = HLM stability (Low Activity, Alternative Method); assay type: in vitro ADME; details: both sexes, human, liver microsomes, pH 7.4, Condition 1 column, values marked *: Low Activity, 0.50 mg protein/mL
In short: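 Pooled male and female human liver microsomes (0.50 mg/mL) in 100 mM PBS pH 7.4 with 1 mM MgCl2 and 1 mM NADPH, compound 1 μM (1.0% solvent), 37° C with shaking, six time points over 60 min. Parent remaining measured by LC-MS/MS; kel, t1/2 and Clint from linear regression of ln(AUC) versus time.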

[8] = molecular target: T5, norepinephrine transporter (NET) (Homo sapiens, UniProt P23975); assay: Fluorescent substrate uptake inhibition, NET; assay type: cell-based; details: 10 μM, HEK293 cells expressing NET
T5 construct: expressed in transfected cells; host or cells: HEK293

CSDS-susceptible mice = assay: Behavioral tests after chronic social defeat stress (CSDS); assay type: in vivo, C57BL/6 mice
[9] = molecular target: MK-801 binding site of the N-methyl-D-aspartate receptor (NMDAR); assay: NMDAR radioligand binding with [3H]MK-801, Method A; design: species or system Wistar rat; details: for Ki: MK-801 site, Method A, Wistar rat brain (minus cerebellum), 5.0 nM [3H]MK-801, read-out: NMDAR Ki ± SEM
Experimental: Radioligand Binding—Method A. Affinity of the test compounds for NMDAR was determined in radioligand binding experiments with [^3H]MK-801 by Eurofins Panlabs, Inc., using methods adapted from the literature (Javitt et al. 1987; Reynolds et al. 1989) and under the conditions described in Table 12.

[10] = HLM stability (Low Activity); assay type: in vitro ADME; details: both sexes, human, liver microsomes, pH 7.4, Condition 1 (Low Activity), 0.42 mg protein/mL
Experimental: For some of the compounds, stability was tested under two microsomal incubation conditions, one with normal enzymatic activity (low activity) and one with higher enzymatic loading, longer incubation time, and lower compound concentration (high activity) intended to increase metabolic lability.
(§1) HLM Stability (Low Activity). Pooled HLM from adult male and female donors (XenoTech H0630) were used. Microsomal incubations were carried out in 96-well plates in 5 aliquots of 40 μL, each (one for each time point). Liver microsomal incubation medium consisted of PBS (100 mM, pH 7.4), MgCl2 (3.3 mM), NADPH (3 mM), glucose-6-phosphate (5.3 mM), and glucose-6-phosphate dehydrogenase (0.67 units/mL), with 0.42 mg of liver microsomal protein per mL. Control incubations were performed by replacing the NADPH-cofactor system with PBS. Test compounds (2 μM, final solvent concentration 1.6%) were incubated with microsomes at 37° C., shaking at 100 rpm. Incubations were performed in duplicate. Five time points over 40 minutes were analyzed. The reactions were stopped by adding 12 volumes of 90% acetonitrile-water to incubation aliquots, followed by protein sedimentation by centrifugation at 5500 rpm for 3 minutes. Supernatants were analyzed for parent compound remaining using a fit-for-purpose liquid chromatography-tandem mass spectrometry (LC-MS/MS) method, with authentic samples of each analyte used for identity confirmation.
(§2) Data Analysis. The elimination constant (kel), half-life (t1/2) and intrinsic clearance (Clint) were determined in a plot of […] versus time, using linear regression analysis.

[11] = HLM stability (High Activity); assay type: in vitro ADME; details: both sexes, human, liver microsomes, pH 7.4, Condition 2 (High Activity), 1.0 mg protein/mL
Experimental: as §1, with “Stability (High” for “Stability (Low”, “with 1.0” for “with 0.42”, “compounds (1” for “compounds (2”, “over 60” for “over 40”
as §2

[12] = test system: monoamine transporters, MATs (SERT, NET, DAT, VMAT2); assay: Monoamine uptake inhibition, monoamine transporters collectively; assay type: cell-based; details: in words
Experimental: The ability of the compounds of the present invention to inhibit uptake of monoamines by the serotonin transporter (SERT), norepinephrine transporter (NET), dopamine transporter (DAT), and vesicular monoamine transporter 2 (VMAT2) (collectively monoamine transporters, MATs) was measured using fluorescent substrate uptake assays in transfected cells (Table 14). The binding affinities of select compounds were also determined in radioligand displacement assays at SERT, NET, and/or DAT (Table 14).
Uptake Inhibition. The ability of test compounds to block monoamine uptake by SERT, NET, DAT, and VMAT2 was determined using the Neurotransmitter Transporter Uptake Assay Kit manufactured by Molecular Devices (Cat #R8173). Briefly, stably transfected cells expressing the MAT of interest (HEK293 cells for SERT and NET; CHO cells for DAT) were grown and plated into 384-well plates at a concentration of 20,000 cells per well. Plates were then incubated for 16-20 h at 37° C. and 5% CO2. The medium was then aspirated and replaced with 25 μL of assay buffer (20 mM HEPES in HBSS, containing 0.1% BSA) containing the test compounds at the appropriate concentrations. Plates were then centrifuged at 300 rpm for 15 s and then incubated at 37° C. for 30 minutes. At this time, 25 μL of the proprietary fluorescent dye solution was added, the plates were incubated at 37° C. for 60 minutes, and then fluorescence was quantified on a plate reader (excitation wavelength=440 nm, emission wavelength=520 nm). The proprietary dye solution contains a mixture of 1) a fluorescent dye that mimics the endogenous substrates of MATs and is thereby actively transported to the intracellular compartment in the absence of an inhibitor and 2) a masking dye that inhibits the fluorescence of dye 1 in the extracellular compartment. Therefore, the overall fluorescence of the system increases as the fluorescent dye is transported into the cells.

[13] = 14.4 mg/kg i.p. as hydrogen tartrate salts

T3 sequence (P31645 whole entry, species assumed): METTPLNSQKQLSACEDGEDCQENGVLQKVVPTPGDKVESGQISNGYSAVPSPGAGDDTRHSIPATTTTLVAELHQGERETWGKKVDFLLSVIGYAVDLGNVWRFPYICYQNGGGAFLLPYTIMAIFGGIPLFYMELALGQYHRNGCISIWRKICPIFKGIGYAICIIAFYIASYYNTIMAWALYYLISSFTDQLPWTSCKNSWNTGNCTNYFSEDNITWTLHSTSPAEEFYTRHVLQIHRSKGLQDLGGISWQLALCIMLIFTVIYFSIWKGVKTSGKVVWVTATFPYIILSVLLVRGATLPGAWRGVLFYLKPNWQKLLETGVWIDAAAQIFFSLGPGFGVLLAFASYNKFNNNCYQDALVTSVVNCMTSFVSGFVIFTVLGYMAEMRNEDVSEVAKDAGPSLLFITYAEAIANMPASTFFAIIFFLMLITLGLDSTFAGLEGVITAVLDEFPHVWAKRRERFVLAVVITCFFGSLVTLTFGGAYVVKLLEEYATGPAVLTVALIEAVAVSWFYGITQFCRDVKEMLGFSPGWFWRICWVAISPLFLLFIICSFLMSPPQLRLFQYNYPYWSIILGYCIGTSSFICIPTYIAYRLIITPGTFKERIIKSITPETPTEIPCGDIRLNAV
T1 sequence (Q05940 whole entry, species assumed): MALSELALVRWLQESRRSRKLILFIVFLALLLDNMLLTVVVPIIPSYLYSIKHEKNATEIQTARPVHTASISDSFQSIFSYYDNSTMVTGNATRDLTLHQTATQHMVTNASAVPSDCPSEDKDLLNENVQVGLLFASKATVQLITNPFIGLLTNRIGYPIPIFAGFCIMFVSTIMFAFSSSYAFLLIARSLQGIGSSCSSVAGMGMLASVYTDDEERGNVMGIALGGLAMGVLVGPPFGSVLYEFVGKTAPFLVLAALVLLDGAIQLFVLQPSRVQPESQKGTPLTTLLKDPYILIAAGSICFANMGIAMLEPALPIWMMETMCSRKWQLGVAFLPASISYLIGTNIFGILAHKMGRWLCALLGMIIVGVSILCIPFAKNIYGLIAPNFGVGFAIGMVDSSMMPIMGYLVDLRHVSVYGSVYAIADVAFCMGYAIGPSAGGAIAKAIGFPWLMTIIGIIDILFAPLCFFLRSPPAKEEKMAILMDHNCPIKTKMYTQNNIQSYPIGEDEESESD
T5 sequence (P23975 whole entry, species assumed): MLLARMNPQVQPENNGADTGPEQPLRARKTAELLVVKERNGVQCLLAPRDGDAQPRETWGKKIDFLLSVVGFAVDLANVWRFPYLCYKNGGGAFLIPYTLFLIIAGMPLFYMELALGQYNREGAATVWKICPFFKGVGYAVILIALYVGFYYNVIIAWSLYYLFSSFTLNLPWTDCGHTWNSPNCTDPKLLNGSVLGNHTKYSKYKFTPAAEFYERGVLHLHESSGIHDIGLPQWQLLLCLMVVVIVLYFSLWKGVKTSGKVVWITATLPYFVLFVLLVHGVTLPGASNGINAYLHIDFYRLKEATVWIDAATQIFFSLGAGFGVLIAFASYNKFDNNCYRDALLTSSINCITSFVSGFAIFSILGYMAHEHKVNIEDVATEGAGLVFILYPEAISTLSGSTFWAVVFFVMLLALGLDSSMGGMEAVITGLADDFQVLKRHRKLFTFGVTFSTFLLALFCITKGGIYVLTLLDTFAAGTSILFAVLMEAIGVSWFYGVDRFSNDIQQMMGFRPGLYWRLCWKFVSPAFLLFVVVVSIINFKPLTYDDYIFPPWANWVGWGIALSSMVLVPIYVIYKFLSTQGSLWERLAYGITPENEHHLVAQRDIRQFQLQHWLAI
T4 sequence (Q01959 whole entry, species assumed): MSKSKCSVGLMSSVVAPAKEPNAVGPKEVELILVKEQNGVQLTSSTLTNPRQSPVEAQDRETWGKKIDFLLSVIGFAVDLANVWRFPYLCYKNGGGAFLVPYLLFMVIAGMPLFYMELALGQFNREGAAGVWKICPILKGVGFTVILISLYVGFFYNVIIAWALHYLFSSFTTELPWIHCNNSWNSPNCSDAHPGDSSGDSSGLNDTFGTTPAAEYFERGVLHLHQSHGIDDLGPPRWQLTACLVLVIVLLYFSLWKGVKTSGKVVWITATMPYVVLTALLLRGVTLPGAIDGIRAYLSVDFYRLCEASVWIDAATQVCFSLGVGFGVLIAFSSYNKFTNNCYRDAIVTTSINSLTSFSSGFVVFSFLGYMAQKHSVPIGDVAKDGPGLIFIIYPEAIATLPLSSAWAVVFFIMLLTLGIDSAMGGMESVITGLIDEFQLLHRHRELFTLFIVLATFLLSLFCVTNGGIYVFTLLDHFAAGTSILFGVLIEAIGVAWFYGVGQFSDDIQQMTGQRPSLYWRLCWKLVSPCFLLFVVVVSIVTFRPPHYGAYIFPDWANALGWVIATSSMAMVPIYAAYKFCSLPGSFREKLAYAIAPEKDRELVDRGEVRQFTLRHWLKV
T2 sequence (P31645 whole entry, species assumed): as the sequence (P31645 whole entry, species assumed) above

Compound: CC(C)N[C@@]1(c2ccccc2)CCCCC1=O [Compound 28R, (R)-2-(isopropylamino)-2-phenylcyclohexan-1-one]
- Ki [1]: > 23 µM
- inhibition at 10 µM [2]: -11.4%
- Ki (SERT): 8.6 µM
- half-life at 1 μM [3]: 0.188 h
- microsomal CLint at 1 μM [3]: 123 µL/min/mg
- IC50 [4]: 7.3 µM
- inhibition at 10 µM [4]: 37.2%
- inhibition at 10 µM [5]: 16.5%
- half-life at 1 μM [6]: 0.438 h
- microsomal CLint at 1 μM [6]: 52.6 µL/min/mg
- half-life at 1 μM [7]: 1.16 h
- microsomal CLint at 1 μM [7]: 20 µL/min/mg
- inhibition at 10 µM [8]: 11.4%

Compound: CNC1(c2ccccc2I)CCCCC1=O (racemic) [Compound 37rac, 2-(2-Iodophenyl)-2-(methylamino)cyclohexan-1-one]
- antidepressant-like activity in behavioral tests after CSDS (TST, FST, SPT) (CSDS-susceptible mice; 10 mg/kg i.p., single dose): not effective
- antidepressant-like activity in behavioral tests after CSDS (TST, FST, SPT) (CSDS-susceptible mice; 30 mg/kg i.p., single dose): only partially effective

Compound: NC1(c2ccccc2)CCCCC1=O (racemic) [Compound 11rac, 2-amino-2-phenyl-cyclohexan-1-one]
- Ki [9]: 1.4 µM
- half-life at 2 μM [10]: 13.4 h
- microsomal CLint at 2 μM [10]: 2 µL/min/mg
- half-life at 1 μM [11]: 8.9 h
- microsomal CLint at 1 μM [11]: 1 µL/min/mg

Compound: CCNC1(c2ccccc2)CCCCC1=O (racemic) [Compound 1rac]
- Ki [9]: 0.3 µM
- half-life at 2 μM [10]: 2.22 h
- microsomal CLint at 2 μM [10]: 13 µL/min/mg
- half-life at 1 μM [11]: 4.98 h
- microsomal CLint at 1 μM [11]: 2 µL/min/mg

Compound: CN[C@@]1(c2ccccc2F)CCCCC1=O [Compound 35R, (R)-2-(2-Fluorophenyl)-2-(methylamino)cyclohexan-1-one]
- Ki [9]: 3.91 ± 0.4 µM
- NMDAR binding, comparison in words ([9]; vs 35S, 35rac, racemic ketamine and R-ketamine): weaker NMDAR binding
- antidepressant-like activity in behavioral tests after CSDS (TST, FST, SPT) (CSDS-susceptible mice; [13]): induced antidepressant-like effects; also recorded: more robust and longer lasting

Compound: CNC1(c2cccc(OC)c2)CCCCC1=O (racemic) [Compound 3rac]
- Ki [9]: 0.99 µM
- half-life at 2 μM [10]: 1.46 h
- microsomal CLint at 2 μM [10]: 19 µL/min/mg
- half-life at 1 μM [11]: 2.5 h
- microsomal CLint at 1 μM [11]: 5 µL/min/mg

Compound: CNC1(c2ccc(F)cc2)CCCCC1=O (racemic) [Compound 18rac, 2-(4-fluorophenyl)-2-(methylamino)cyclohexan-1-one]
- Ki [1]: 4.5 µM
- inhibition at 10 µM [2]: 20.2%
- microsomal CLint at 1 μM [3]: 13.7 µL/min/mg
- inhibition at 10 µM [4]: 25.2%
- inhibition at 10 µM [5]: 21.4%
- microsomal CLint at 1 μM [6]: 19.6 µL/min/mg
- half-life at 1 μM [7]: > 2.42 h
- microsomal CLint at 1 μM [7]: < 9.6 µL/min/mg
- inhibition at 10 µM [8]: 16%
- selectivity for NMDAR (over MATs) [12]: greater selectivity for NMDAR

Compound: CNC1(c2ccccc2Cl)CCCCC1=O (racemic) [racemic ketamine, reference compound]
- antidepressant-like activity in behavioral tests after CSDS (TST, FST, SPT) (CSDS-susceptible mice; 10 mg/kg i.p., single dose): effective

Compound: NC1(c2ccccc2Cl)CCCCC1=O (racemic) [Compound 78rac]
- Ki [9]: 4 µM
- half-life at 2 μM [10]: 4.28 h
- microsomal CLint at 2 μM [10]: 7 µL/min/mg
- half-life at 1 μM [11]: 3.03 h
- microsomal CLint at 1 μM [11]: 4 µL/min/mg

Compound: CN[C@]1(c2ccccc2F)CCCCC1=O [Compound 35S, (S)-2-(2-Fluorophenyl)-2-(methylamino)cyclohexan-1-one]
- Ki [9]: 0.79 ± 0.21 µM
- antidepressant-like activity in behavioral tests after CSDS (TST, FST, SPT) (CSDS-susceptible mice; [13]): induced antidepressant-like effects
